# Measurements taken from PMC11120720, “Linking Variability in Phytochemical Composition with Safety Profile of Thymus carnosus Boiss. Extracts: Effect of Major Compounds and Evaluation of Markers of Oxidative Stress and Cell Death” (International Journal of Molecular Sciences, 2024).
# pIC50: −log10 of the molar value. Like-named read-outs stand apart in the source and are kept apart here.
# How the values were obtained:
# [1] = test system: murine melanoma cells (B16-BL6 cells); parameters: method as in PMID 15538571; conditions: cited from earlier work
# HepG2 cells [2] = conditions: cited from earlier work
# HepG2 cells [3] = assay: Intracellular ROS (DCFDA, flow cytometry), HepG2; format: cell-based, human; conditions: compound 50 µM, 24 h
# Experimental: (§1) The cells were then equally divided for each assay.
# (§2) Intracellular ROS level assessment was performed as described by Silva et al., 2022 [65], using dichlorodihydrofluorescein diacetate (DCFDA). Cells obtained in the previous step were centrifuged, the supernatant discarded, and 200 µL of DCFDA (10 µM in FBS-free DMEM) was added. Cells were incubated for 45 min (37 °C, in the dark), washed to remove excess probe, and resuspended in PBS for data acquisition.
# Caco-2 cells [4] = conditions: cited from earlier work
# HepG2 cells [5] = assay: Mitochondrial membrane potential (JC-1, flow cytometry), HepG2; format: cell-based, human; conditions: compound 50 µM, 24 h
# Experimental: (§3) Flow cytometry was used to analyze the effect of T. carnosus extracts on intracellular ROS, modulation of mitochondrial membrane potential (MMP), cell cycle arrest, and apoptotic/necrotic cell death induction.
# (§4) Both one- and two-color assays were performed using a BD Accuri™ C6 cytometer (Becton Dickinson, Franklin Lakes, NJ, USA), and 10,000 gated events were collected from each sample [1]. For flow cytometry assays, cells were handled as described previously but seeded at a density 5 × 10^4 cells/mL (750 μL/well) in 12-well plates. Caco-2 and HepG2 cells were incubated for 24 h with the extracts (100 µg/mL) or individual phytochemicals (50 µM) diluted in FBS-free culture media h. After incubation, test solutions were removed; the cells were washed with PBS and detached from the plates using trypsin-EDTA. Once transferred to centrifuge tubes, the cells were centrifuged (bench micro-centrifuge; 3000 rpm; 3 min), the supernatant was discarded, and a new wash cycle was performed. The cells were then equally divided for each assay. A negative control was used in all assays consisting of nonexposed cells incubated only with culture media.
# (§5) Mitochondrial membrane potential (MMP) was evaluated using 5,5″,6,6″-tetrachloro-1,1″,3,3″-tetraethylbenzimidazolylcarbocyanineiodide (JC-1). Cells were processed as described for DCFDA but incubated with 200 µL of JC-1 (2 µM, in FBS-free DMEM) for 20 min (37 °C, in the dark).
# Caco-2 cells [6] = assay: Cell cycle arrest (PI, flow cytometry), Caco-2; format: cell-based; conditions: compound 50 µM, 24 h
# Experimental: as §1
# (§6) Cell cycle arrest assessment was performed as described in [1]. Cells were processed as described above until cell detachment and centrifuged, after which the second washing step was performed with ice-cold PBS (0 °C). After centrifugation, the supernatant was discarded, and cells were fixed with 500 µL of ethanol:PBS solution (70:30, % v/v, previously cooled at −20 °C) for at least 4 h at −20 °C. After fixation, two washing cycles were performed: the first with ice-cold PBS (0 °C) and the second with room-temperature PBS, followed by the addition of 200 µL of a PBS solution containing PI (50 µg/mL), RNAse A (50 µg/mL), and Triton X-100 (0.1%). Cells were incubated for 30 min at 37 °C, and then cells were washed once with PBS to remove the staining solution. After resuspension in PBS, the data were acquired.
# [7] = test system: human prostate cancer cells; parameters: method as in PMID 29898731; conditions: 40 µM; cited from earlier work
# Caco-2 cells [8] = assay: Annexin V-FITC/PI apoptosis/necrosis, Caco-2; format: cell-based; conditions: compound 50 µM, 24 h
# Experimental: as §1
# (§7) For the assessment of apoptotic/necrotic cell death, an Annexin V-FITC (Thermo Fisher Scientific, Waltham, MA, USA) and propidium iodide (PI; Merck, Darmstadt, Germany) double-staining assay was used to evaluate the apoptotic/necrotic cell death induced by T. carnosus extracts and by individual phytochemicals, as described previously. Briefly, after detachment and washing, the supernatant was discarded, and 200 µL of Annexin V-FITC (1:200 dilution in Annexin-binding buffer [10 mM HEPES sodium salt, 150 mM NaCl, 5 mM KCl, 5 mM MgCl2, and 1.8 mM CaCl2; pH = 7.4]) was added. Cells were incubated for 20 min (room temperature, in the dark). After incubation, 5 µL of propidium iodide (PI; 50 µg/mL) was added, the cells were incubated for 5 min on ice (in the dark), and the data were acquired.
# HepG2 cells [9] = assay: Alamar Blue cell viability assay, HepG2; format: cell-based, human; conditions: for IC50: Homo sapiens, HepG2
# Experimental: (§8) The safety profile of T. carnosus AD and HE extracts was evaluated in Caco-2 and HepG2 cells using an Alamar Blue® (Invitrogen; Alfagene, Lisboa, Portugal) assay. An initial screening was performed for all extracts at concentrations ranging between 100 and 1000 µg/mL. Due to the higher toxicity of the HE extracts, which was previously described for various extracts of Thymus species using the same extraction methods (e.g., T. mastichina and Thymus zygis), a different set of concentrations was used for the HE extracts (between 100 and 300 µg/mL for Caco-2 cells and 50 and 150 µg/mL for HepG2 cells). Figure 1 presents the data related to the cell viability assays in Caco-2 (panels A–E) and HepG2 cells (panels F–J) exposed to T. carnosus extracts, as indicated.
# (§9) The safety profile of T. carnosus extracts was assessed in Caco-2 and HepG2 cells. Caco-2 (human colon adenocarcinoma cell line) were obtained from CLS (Cell Lines Service, Eppelheim, Germany), and HepG2 (human hepatocellular carcinoma cell line) were obtained from ATCC (American Type Culture Collection, Manassas, VA, USA).
# (§10) Cell culture maintenance, handling, subculturing, and seeding were performed as described by Silva et al., 2020 [5], and cell viability was assessed using an Alamar Blue® assay, as described by Andreani et al., 2014 [64]. Concentrations ranged between 100 and 1000 µg/mL for AD extracts in both cell lines and 100 to 300 µg/mL or 50 to 150 µg/mL for HE extracts in Caco-2 and HepG2 cells, respectively. The effect of individual compounds on cell viability was assessed for concentrations ranging from 50 to 300 µM. All test solutions were prepared by diluting the samples in FBS-free culture media from the stock solutions described in Section 3.2, just prior to being used.
# (§11) The results are presented as mean ± SD of at least three independent assays. The calculation of IC50 values was performed as described by Silva et al., 2020 [5]. Data analysis, graphical design, and statistical analysis were performed using Microsoft Office Excel (Professional Plus 2019; Microsoft Corporation, Washington, DC, USA) and GraphPad Prism (Version 8; GraphPad Software Inc., San Diego, CA, USA). Flow cytometry data analysis was performed using BD Accuri™ C6 Software, version 1.0.264.21 (Becton Dickinson, San Diego, CA, USA).
# [10] = Alamar Blue cell viability assay, HepG2; format: cell-based, human; conditions: human
# Experimental: as §8, §9, §10, §11
# HepG2 cells [11] = assay: Cell cycle arrest (PI, flow cytometry), HepG2; format: cell-based, human; conditions: compound 50 µM, 24 h
# Experimental: as §1, §6
# HepG2 cells [12] = assay: Annexin V-FITC/PI apoptosis/necrosis, HepG2; format: cell-based, human; conditions: compound 50 µM, 24 h
# Experimental: as §1, §7
# Caco-2 cells [13] = assay: Alamar Blue cell viability assay, Caco-2; format: cell-based, human; conditions: for IC50: Homo sapiens, Caco-2
# Experimental: as §8, §9, §10, §11
# [14] = Alamar Blue cell viability assay, Caco-2; format: cell-based, human; conditions: human, Caco-2
# Experimental: as §8, §9, §10, §11
# [15] = test system: HCT-116 human colorectal carcinoma cells; conditions: cited from earlier work
# Caco-2 cells [16] = assay: Intracellular ROS (DCFDA, flow cytometry), Caco-2; format: cell-based; conditions: compound 50 µM, 24 h
# Experimental: as §1, §2
# [17] = test system: colorectal cancer cell line CT26; parameters: method as in PMID 29459827; conditions: cited from earlier work
# HeLa cells = conditions: cited from earlier work
# Caco-2 cells [18] = conditions: compound 50 µM, 24 h
# Experimental: as §3, §4, §5
# [19] = test system: NPC-39 nasopharyngeal carcinoma cells; parameters: method as in PMID 31981746; conditions: 50 µM; cited from earlier work
# [20] = test system: DLD-1, Dukes-type C colorectal adenocarcinoma; conditions: cited from earlier work
# [21] = test system: human small cell lung cancer cells (SCLCs); parameters: method as in doi:10.4314/tjpr.v14i8.11; conditions: 50 and 100 µM; cited from earlier work
# [22] = test system: HONE-2 nasopharyngeal carcinoma cells; parameters: method as in PMID 31981746; conditions: 50 µM; cited from earlier work
# [23] = test system: human lung cancer (A549) cells; conditions: cited from earlier work
# [24] = test system: human prostate carcinoma (DU 145) cells; conditions: cited from earlier work
# [25] = test system: human lung adenocarcinoma (H1975) cells; conditions: cited from earlier work
# [26] = 24 h exposure, read-out: IC50 (µM) - HepG2 cells: 24 h
# [27] = 48 h exposure, read-out: IC50 (µM) - HepG2 cells: 48 h
# [28] = 24 h exposure, read-out: IC50 (µM) - Caco-2 cells: 24 h
# [29] = 48 h exposure, read-out: IC50 (µM) - Caco-2 cells: 48 h
smiles,measurement,setting,value
"O=c1c(O)c(-c2ccc(O)c(O)c2)oc2cc(O)cc(O)c12 [Quercetin, quercetin]","MMP modulation, B16-BL6",[1],loss of MMP
same,concentrations reducing HepG2 cell viability,HepG2 cells [2]; 24 h of exposure,≥ 33 µM
same,"change in intracellular ROS, HepG2",HepG2 cells [3],significant increase in ROS
same,"cell viability, Caco-2","Caco-2 cells [4]; 50 µM, 48 h",75–80%
same,effect on Caco-2 cell viability,"Caco-2 cells [4]; 100 µM, 24 h",no changes in cell viability
same,"MMP modulation, HepG2",HepG2 cells [5],did not induce variations in the MMP
same,"cell cycle effect, Caco-2",Caco-2 cells [6],cell cycle arrest in the S and G2/M phases
same,"MMP modulation, prostate cancer cells",[7],loss of MMP
same,% of healthy Caco-2 cells,Caco-2 cells [8],~ 86%
same,"cell death induction, Caco-2",Caco-2 cells [8],shift in the cell distribution into late apoptosis
same,concentrations reducing HepG2 cell viability,"HepG2 cells [9]; 50 µM = lowest concentration tested, Figure 2M",≥ 50 µM
same,IC50,HepG2 cells [9]; [26],141 µM
same,IC50,HepG2 cells [9]; [27],10.1 µM
same,viability at 48 h,"[10]; HepG2 cells, 50-100 µM, 48 h",≤ 20%
same,"cell cycle effect, HepG2",HepG2 cells [11],cell cycle arrest was observed in the G0/G1 phase
same,% of healthy HepG2 cells,HepG2 cells [12],~ 76%
same,"cell death induction, HepG2",HepG2 cells [12],shift in the cell population to both early and late apoptosis
same,concentrations giving significant decrease in Caco-2 cell viability,Caco-2 cells [13]; 24 h,≥ 75 µM
same,IC50,Caco-2 cells [13]; [28],> 300 µM
same,IC50,Caco-2 cells [13]; [29],109 µM
same,"viability at 48 h, 50 µM","[14]; 50 µM, 48 h, Figure 2E",77.6%
same,viability at 48 h,"[14]; 50-100 µM, 48 h, read-out: cell viability, Caco-2",≥ 68%
same,viability at 24 h,"[14]; concentrations up to 200 µM, 24 h, Figure 2E",~90%
O=C(/C=C/c1ccc(O)c(O)c1)O[C@H](Cc1ccc(O)c(O)c1)C(=O)O [Rosmarinic acid],"cell cycle effect, HCT-116",[15],cell cycle arrest in G0/G1
same,concentrations giving significant reduction in HepG2 cell viability,HepG2 cells [2],≥ 34.69 µM
same,pIC50,"HepG2 cells [2]; read-out: IC50 (48 h), HepG2 cells, 48 h",4.04
same,"change in intracellular ROS, HepG2",HepG2 cells [3],significant (p < 0.05) increase in intracellular HepG2 ROS levels
same,concentrations that did not reduce Caco-2 cell viability,Caco-2 cells [4]; Caco-2,≤ 90 µM
same,"MMP modulation, HepG2",HepG2 cells [5],slight decrease in MMP
same,"cell cycle effect, Caco-2",Caco-2 cells [6],cell cycle arrest in G0/G1
same,"cell death induction, Caco-2",Caco-2 cells [8],significant increase in both late apoptosis and necrosis
same,IC50,HepG2 cells [9]; [26],> 300 µM
same,IC50,HepG2 cells [9]; [27],> 300 µM
same,"viability at 24 h, 300 µM",[10],65.2%
same,"cell cycle effect, HepG2",HepG2 cells [11],induced cell cycle arrest in both cell lines but in different phases
same,"cell death induction, HepG2",HepG2 cells [12],necrosis in HepG2 cells
same,"change in intracellular ROS, Caco-2",Caco-2 cells [16],neither RA nor eriodictyol induced ROS increases
same,"cell cycle effect, CT26",[17],cell cycle arrest in G0/G1
same,IC50,Caco-2 cells [13]; [28],> 300 µM
same,IC50,Caco-2 cells [13]; [29],> 300 µM
same,"viability at 24 h, 300 µM",[14],87.8%
same,"viability at 48 h, 300 µM",[14],72.6%
"O=C(/C=C/c1ccc(O)c(O)c1/C=C/c1ccc(O)c(O)c1)O[C@H](Cc1ccc(O)c(O)c1)C(=O)O [Salvianolic acid A, salvianolic acid A]","concentrations with no or low cytotoxicity, HCT-116",[15],up to 50 µM
same,pIC50,HeLa cells,≥ 4.52
same,"MMP modulation, Caco-2",Caco-2 cells [18],significant loss of MMP
same,"effect on cell viability, NPC-39",[19],no reduction in cell viability
same,IC50,HepG2 cells [9]; [26],> 300 µM
same,IC50,HepG2 cells [9]; [27],> 300 µM
same,"concentrations with no or low cytotoxicity, DLD-1",[20],up to 50 µM
same,"MMP modulation, SCLC cells",[21],loss of MMP
same,"effect on cell viability, HONE-2",[22],no reduction in cell viability
same,pIC50,[23],≥ 4.52
same,pIC50,[24],≥ 4.52
same,pIC50,[25],≥ 4.52
same,IC50,Caco-2 cells [13]; [28],> 300 µM
same,IC50,Caco-2 cells [13]; [29],> 300 µM
same,"viability at 48 h, 300 µM",[14],54.4%
